The source of these data is EP2853565A1, “Glutamate receptor photomodulators” (Consejo Superior De Investigaciones Científicas, priority 2013, dated 2015).

SMILES strings stand for the structures.

Broadly, the IC50 is the midpoint of a concentration-inhibition curve.

Test [1] has as its target T1, rat metabotropic glutamate receptor 5 (mGlu5) (Rattus norvegicus, UniProt P31424).
T1 construct: expressed in transfected cells; host or cells: HEK tsA201 cells
Kind of test: Single-cell calcium imaging (Fura-2) of quisqualate-evoked calcium oscillations, with photoisomerization by 390/490 nm light. It is filed as cell-based. The method, then:
Cell Culture and Transient Transfection: Human embryonic kidney (HEK) tsA201 cells were maintained at 37 °C and humidified atmosphere with 5% CO2; cells were grown in Dulbecco's Modified Eagle's Medium/Nutrient Mixture F-12 Ham (DMEM/F12, 1:1) medium, supplemented with 10% Fetal Bovine Serum (FBS) and antibiotics (1% Penicillin/Streptomycin). Once at confluence, culture flasks were washed twice with PBS and harvested with 300 µl Accutase. Expression of rat mGlu5a was induced by transient transfection of the cDNA-containing plasmid with X-tremeGENE 9 DNA Transfection Reagent. For transfection, cells were seeded at a concentration of 10^6 cells per well on 6-multiwell plates with a final volume of 2ml, and immediately transfected following manufacturer's instructions (100 µl mixture of 3:1 (µl:µg) of X-tremeGENE 9 DNA TR:mGlu5a plasmid in serum-free medium, 20 minutes incubation). About 24h after transfection, HEK tsA201 cells transiently overexpressing mGlu5a were seeded onto 15 mm glass coverslips pre-treated with Poly-L-Lysine to allow cell adhesion. Seeding concentration was maintained between 2/4·10^5 cells to get preconfluent cultures at the time of experiment. Transfected cells were used for single-cell calcium imaging experiments between 48 and 72 hours after transfection.
Single-cell Calcium Imaging: At the time of experiments, glass coverslips were mounted onto the recording chamber, and cells were loaded with the high affinity, ratiometric, intracellular calcium indicator Fura-2 AM; the dye was incubated during 30 minutes at 37°C and 5% CO2, at a final concentration of 10 µM in Ca^2+-free extracellular solution (ES, -Ca^2+). We used a ratiometric calcium sensor in order to avoid bleaching artefacts. Cells were then carefully rinsed with fresh ES, three to four times, before the recording chamber was placed on an inverted fully-motorised digital microscope (iMic 2000, Till Photonics, Gräfelfing, Germany). Images were acquired at room temperature with a UV Apochromat 40x oil objective lens (Olympus, Tokio, Japan). Fura-2 AM was excited consecutively for 10 ms at two different wavelengths (340 and 380 nm) as indicated by the manufacturer (Life Technologies, Paisley, UK) by using a Polychrome V light source (Till Photonics) and a 505 nm dichroic beamsplitter (Chroma Technology, Below Falls, VT, USA); emission at 510 nm was filtered by a D535/40nm emission filter (Chroma Technology) and finally collected by a cooled CCD camera (Interline Transfer IMAGO QE, Till Photonics). The fluorescence measurements (excitation + emission recording) were carried out every 2 seconds, and each measurement takes about 10-50 ms. The 340 and 380 nm images were stored by the TILLvisION imaging software (Till Photonics); the ratio of the emission when the sample was excited at 340 nm and the emission when it was excited at 380 nm was recorded and its mean value was calculated for each cell using the same software. Higher ratios correspond to higher intracellular calcium concentrations.
Agonists and allosteric modulators addition was obtained by carefully pipetting an initial 1:30 dilution of the compound directly into the accessory pool of the recording chamber, obtaining a final dilution of 1:1000 (total DMSO concentration was always lower than 1%). Activation of the agonist was induced in HEK tsA201 mGlu5a transfected cells with the glutamate analogue Quisqualic acid (3 µM). Only evoked, sustained intracellular calcium oscillations were taken into account as consistent cell responses to the application of the agonist; different responses (such as single-peak, peak-and-plateau, etc.), as well as spontaneously oscillating cells, were discarded as unsuitable for calculating the oscillatory frequency.
Solutions and Reagents: The extracellular solution (ES) used for single-cell calcium imaging contained: 140 mM NaCl, 5.4 mM KCI, 1 mM MgCl2, 10 mM HEPES, 10 mM glucose and 2 mM CaCl2 adjusted to pH 7.4 with NaOH. […]

Another test addresses T2, rat mGlu5 receptor (Rattus norvegicus, UniProt P31424).
T2 construct: expressed in transfected cells; host or cells: HEK293 cells (EAAC1 glutamate transporter cotransfected)
Kind of test: IP1 accumulation (IP-One HTRF) in transiently transfected HEK293 cells. Conditions: IP1 production, HEK293 cells with rat mGlu5 and EAAC1, 30 min incubation, 100 nM Quisqualate. It is filed as cell-based. As to the method:
Pharmacological experiments on mGlu receptors were performed in HEK293 cells cultured in Dulbecco's modified Eagle's medium (GIBCO-BRL Life Technologies Inc., Cergy Pontoise, France) supplemented with 10% fetal calf serum (FCS, GIBCO-BRL Life Technologies., Cergy Pontoise, France). The compounds were tested on a rat mGlu5 receptor, which was transiently transfected in HEK293 cells by electroporation as described elsewhere [Neuropharmacology 1998, 37, 1043-1051]. Additionally, a plasmid encoding the high-affinity glutamate transporter EAAC1 was cotransfected to prevent the influence of the glutamate released by the cells in the medium. Receptor activity is monitored by measurement of IP1 production using the kit IP-One HTRF® Assay from Cisbio Bioassays (France). For IP1 accumulation measurements, cells were seeded after transfection in polyornithine-coated, black-walled 96-well Polystyrene Cell Culture Microplates (Greiner Bio-One SAS, France) and cultured for 24 h in glutamate/glutamine-free medium (GIBCO-BRL Life Technologies Inc., Cergy Pontoise, France) and antibiotics (penicillin and streptomycin, 100 UmL_1 final, GIBCO-BRL Life Technologies). Media was removed and cells were incubated for 30min in a solution containing the drugs at the tested concentrations. The IP-One stimulation buffer, provided with the kit IP-One (Cisbio Bioassays, France), contains lithium chloride (LiCl) at 50mM that inhibits the degradation of IP1 to Myo-inositol, which is then accumulated in the cell. HTRF reagents, monoclonal antibody specific to IP1 labelled with terbium cryptate and IP1 coupled with the dye d2, diluted in a Lysis buffer were added. After 1 hour of incubation, time resolved fluorescence at 620nm and 665nm was measured with RUBYstar (BMG Labtech, Germany). The specific signal, which results from the energy transfer between […], is proportional to the ratio between the fluorescence emitted at 620 nm and 665 nm, and consequently to the concentration of IP1 in the lysate. All points were determined in triplicate. The dose-response curves were fitted using GraphPad Prism software and the following equation: y= [(ymax-ymin)/(1+10^(LogIC50-x))]+ymin, in which IC50 is the concentration of the compound necessary to obtain the half-maximal effect. (10 µM ≤ IC50 < 50 µM +; 2 µM ≤ IC50 < 10 µM ++; 500 nM ≤ IC50 < 2 µM +++; 100 nM ≤ IC50<500 nM ++++; IC50< 100 nM +++++) Table 14.
(TR-FRET usually uses a lanthanide donor and a delayed reading to cut background.)

Setting [2] is: 3 µM quisqualate, HEK tsA201 cells.

T2 sequence (P31424 21-1203): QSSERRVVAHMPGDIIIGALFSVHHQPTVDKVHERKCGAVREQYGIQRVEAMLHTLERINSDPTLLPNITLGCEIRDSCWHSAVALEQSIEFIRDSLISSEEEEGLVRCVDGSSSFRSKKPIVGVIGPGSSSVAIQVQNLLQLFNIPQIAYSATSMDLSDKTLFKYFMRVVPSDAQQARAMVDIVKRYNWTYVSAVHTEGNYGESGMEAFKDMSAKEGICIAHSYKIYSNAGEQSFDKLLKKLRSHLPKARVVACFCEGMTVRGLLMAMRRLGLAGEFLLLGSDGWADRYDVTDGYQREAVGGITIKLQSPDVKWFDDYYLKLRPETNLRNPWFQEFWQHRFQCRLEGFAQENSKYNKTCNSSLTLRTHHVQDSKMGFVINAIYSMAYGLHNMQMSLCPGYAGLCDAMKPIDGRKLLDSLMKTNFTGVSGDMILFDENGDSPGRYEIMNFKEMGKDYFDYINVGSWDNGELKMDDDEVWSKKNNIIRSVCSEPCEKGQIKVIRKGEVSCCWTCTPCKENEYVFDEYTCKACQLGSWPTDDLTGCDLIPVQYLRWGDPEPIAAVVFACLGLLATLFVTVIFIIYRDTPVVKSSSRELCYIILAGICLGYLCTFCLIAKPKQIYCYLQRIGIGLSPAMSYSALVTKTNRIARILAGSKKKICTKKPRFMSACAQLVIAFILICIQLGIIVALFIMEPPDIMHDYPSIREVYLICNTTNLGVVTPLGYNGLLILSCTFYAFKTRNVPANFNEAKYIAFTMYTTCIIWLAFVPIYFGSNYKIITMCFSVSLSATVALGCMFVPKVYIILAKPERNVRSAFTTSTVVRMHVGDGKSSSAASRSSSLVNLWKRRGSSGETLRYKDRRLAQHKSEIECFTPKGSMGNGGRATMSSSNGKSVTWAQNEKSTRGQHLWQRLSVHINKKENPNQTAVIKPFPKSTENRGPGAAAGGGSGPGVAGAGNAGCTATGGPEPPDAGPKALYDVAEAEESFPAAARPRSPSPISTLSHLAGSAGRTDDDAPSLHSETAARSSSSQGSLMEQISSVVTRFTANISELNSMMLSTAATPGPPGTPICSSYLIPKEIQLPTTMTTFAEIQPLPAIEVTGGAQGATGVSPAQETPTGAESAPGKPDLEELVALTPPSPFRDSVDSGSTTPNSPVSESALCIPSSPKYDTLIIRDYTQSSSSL
T1 sequence (P31424 21-1171 isoform P31424-2 limits assumed): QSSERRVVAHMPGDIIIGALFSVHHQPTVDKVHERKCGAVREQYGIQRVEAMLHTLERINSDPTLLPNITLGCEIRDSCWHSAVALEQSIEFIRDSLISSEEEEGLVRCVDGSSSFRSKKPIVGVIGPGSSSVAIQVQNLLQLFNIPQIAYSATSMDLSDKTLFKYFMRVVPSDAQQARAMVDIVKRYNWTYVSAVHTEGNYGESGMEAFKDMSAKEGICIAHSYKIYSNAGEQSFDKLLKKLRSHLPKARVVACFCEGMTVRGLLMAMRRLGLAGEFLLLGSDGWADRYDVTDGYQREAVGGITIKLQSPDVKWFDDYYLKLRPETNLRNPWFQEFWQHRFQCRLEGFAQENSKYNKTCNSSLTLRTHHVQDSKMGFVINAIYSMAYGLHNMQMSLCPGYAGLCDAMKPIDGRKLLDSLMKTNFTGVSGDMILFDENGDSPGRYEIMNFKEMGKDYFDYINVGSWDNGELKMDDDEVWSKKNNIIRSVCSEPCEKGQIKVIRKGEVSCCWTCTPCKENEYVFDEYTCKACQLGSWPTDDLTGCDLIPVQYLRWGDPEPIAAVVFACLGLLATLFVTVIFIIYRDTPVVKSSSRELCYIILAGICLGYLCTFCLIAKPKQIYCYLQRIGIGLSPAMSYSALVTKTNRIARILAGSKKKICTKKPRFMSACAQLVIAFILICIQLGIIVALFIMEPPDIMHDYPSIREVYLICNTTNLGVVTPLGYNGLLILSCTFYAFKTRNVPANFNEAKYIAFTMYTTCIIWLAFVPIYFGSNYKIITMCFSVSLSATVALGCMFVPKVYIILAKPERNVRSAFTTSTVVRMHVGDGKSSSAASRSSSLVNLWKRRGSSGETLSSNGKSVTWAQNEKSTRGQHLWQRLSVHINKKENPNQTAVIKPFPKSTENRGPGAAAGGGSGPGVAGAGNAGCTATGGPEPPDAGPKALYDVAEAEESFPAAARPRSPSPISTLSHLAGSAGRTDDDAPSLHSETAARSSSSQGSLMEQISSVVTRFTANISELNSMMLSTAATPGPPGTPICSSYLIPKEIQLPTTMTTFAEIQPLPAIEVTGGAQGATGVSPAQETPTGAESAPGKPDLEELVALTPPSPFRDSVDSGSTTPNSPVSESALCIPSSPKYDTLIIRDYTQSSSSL

In the case of `COc1cc(/C=C\c2ccccn2)ccc1NC(=O)c1ccccc1Cl` [(Z)-47, (Z)-2-Chloro-N-(2-methoxy-4-(2-(pyridin-2-yl)vinyl)phenyl)benzamide, reference compound], the “effect on mGlu5 response (calcium oscillations)” value (“effect … (calcium oscillations)” below) in test [1] (setting [2]) is “inhibits mGlu5 activation”.
As for `COc1cc(/N=N/c2ccccn2)ccc1NC(=O)c1cscn1` [Compound 1r, (E)-N-(2-Methoxy-4-(pyridin-2-yldiazenyl)phenyl)thiazole-4-carboxamide], the IC50 on rat mGlu5 receptor lay within 100 to 500 nM.
The same measure, in the same setting: with `COc1cc(/N=N/c2ccccn2)ccc1NC(=O)c1cccnc1` [Compound 1e, (E)-N-(2-Methoxy-4-(pyridin-2-yldiazenyl)phenyl)nicotinamide] the figure was 100 to 500 nM.
Same read-out and setting: in the case of `O=C(Nc1ccc(/N=N/c2ccccn2)cc1)c1ccccn1` [Compound 1h, (E)-N-(4-(Pyridin-2-yldiazenyl)phenyl)picolinamide] it was 2000 to 10000 nM; in that of `COc1cc(/N=N/c2ccccn2)ccc1NC(=O)c1ccncc1` [Compound 1f, (E)-N-(2-Methoxy-4-(pyridin-2-yldiazenyl)phenyl)isonicotinamide], 500 to 2000 nM; in that of `COc1cc(/N=N/c2ccccn2)ccc1NC(=O)C1CCCCC1` [Compound 1n, (E)-N-(2-Methoxy-4-(pyridin-2-yldiazenyl)phenyl)cyclohexanecarboxamide], less than 100 nM.
Same read-out and setting: with `COc1cc(/N=N/c2ccccn2)ccc1NC(=O)c1ccccc1` [Compound 1l, (E)-N-(2-Methoxy-4-(pyridin-2-yldiazenyl)phenyl)benzamide] the figure was 100 to 500 nM.
As for `COc1cc(/N=N/c2ccccn2)ccc1N1C(=O)c2ccccc2C1=O` [Compound 1j, (E)-2-(2-Methoxy-4-(pyridin-2-yldiazenyl)phenyl)isoindoline-1,3-dione], the IC50 at rat mGlu5 receptor is 2000 to 10000 nM.
`COc1cc(/N=N/c2ccccn2)ccc1NC(=O)Nc1ccccc1F` [Compound 1o, (E)-1-(2-Fluorophenyl)-3-(2-methoxy-4-(pyridin-2-yldiazenyl)phenyl)urea]: the IC50 at rat mGlu5 receptor fell in the range of 500 to 2000 nM.
Take `COc1cc(/N=N/c2ccccn2)ccc1NC(=O)c1ccccc1F` [Compound 1p, (E)-2-Fluoro-N-(2-methoxy-4-(pyridin-2-yldiazenyl)phenyl)benzamide]: the IC50 at rat mGlu5 receptor was 100 to 500 nM.
In the case of `COc1cc(/N=N/c2ccccn2)ccc1NC(=O)c1ccccn1` [Compound 1d, (E)-N-(2-Methoxy-4-(pyridin-2-yldiazenyl)phenyl)picolinamide], the IC50 at rat mGlu5 receptor was in the range of 100 to 500 nM.
As for `COc1cc(/C=C/c2ccccn2)ccc1NC(=O)c1ccccc1Cl` [(E)-47, (E)-2-Chloro-N-(2-methoxy-4-(2-(pyridin-2-yl)vinyl)phenyl)benzamide, reference compound], the “effect … (calcium oscillations)” value in test [1] (setting [2]) was “blocked the oscillatory responses of quisqualate”.
As to `COc1cc(/N=N/c2ccccn2)ccc1NC(=O)c1ccc(C(=O)c2ccccc2)cc1` [Compound 1a, (E)-4-Benzoyl-N-(2-methoxy-4-(pyridin-2-yldiazenyl)phenyl)benzamide], on rat mGlu5 receptor, the IC50 was in the range of 500 to 2000 nM.
Take `COc1cc(/N=N/c2ccccn2)ccc1NC(=O)c1ccccc1Cl` [Compound 1c, (E)-2-Chloro-N-(2-methoxy-4-(pyridin-2-yldiazenyl)phenyl)benzamide]: the IC50 is less than 100 nM on rat mGlu5 receptor and 30 nM in test [1] (in the dark or under 490 nm light, 3 µM quisqualate, HEK tsA201 cells, read-out: IC50 (inhibitory profile on calcium oscillations)). In addition, the “oscillatory frequency at 390 nm” value in test [1] (100 nM compound, 390 nm illumination, compared with quisqualate alone) is on record as “significantly higher than with quisqualate alone”. For the same compound, the “oscillatory responses to 3 µM quisqualate” value in test [1] (100 nM compound, in the dark or under 490 nm light) was “completely blocked”. Moreover, the “effect … (calcium oscillations)” value in test [1] (setting [2]) is reported as “inhibit mGlu5 response”. For the same compound, the “light dependence of the activity on mGlu5” value in test [1] (3 µM quisqualate, UV (380/390 nm) and visible (500/490 nm) light) was “could be reversibly switched on and off at 390 nm and 490 nm”.
With `O=C(Nc1ccccn1)c1ccc(/N=N/c2ccccn2)cc1` [Compound 1s, (E)-N-(Pyridin-2-yl)-4-(pyridin-2-yldiazenyl)benzamide], the IC50 on rat mGlu5 receptor was in the range of 10000 to 50000 nM.
On to `COc1cc(/N=N\c2ccccn2)ccc1NC(=O)c1ccccc1Cl` [(Z)-1c, (Z)-2-chloro-N-(2-methoxy-4-(pyridin-2-yldiazenyl)phenyl)benzamide], for which the “effect … (calcium oscillations)” value in test [1] (setting [2]) is recorded as “increases this response”.
As for `COc1cc(/N=N/c2ccccn2)ccc1NC(=O)c1ccc(Cl)cc1Cl` [Compound 1b, (E)-2,4-Dichloro-N-(2-methoxy-4-(pyridin-2-yldiazenyl)phenyl)benzamide], the IC50 on rat mGlu5 receptor fell in the range of 500 to 2000 nM.
Still for that read-out and setting: with `COc1cc(/N=N/c2ccccn2)ccc1NC(=O)C(C)C` [Compound 1m, (E)-N-(2-Methoxy-4-(pyridin-2-yldiazenyl)phenyl)isobutyramide] the figure was less than 100 nM; with `N#Cc1cc(/N=N/c2ccccn2)ccc1NC(=O)c1ccccn1` [Compound 1g, (E)-N-(2-Cyano-4-(pyridin-2-yldiazenyl)phenyl)picolinamide], 2000 to 10000 nM; with `O=C(Nc1cccc(/N=N/c2ccccn2)c1)c1ccccn1` [Compound 1t, (E)-N-(3-(pyridin-2-yldiazenyl)phenyl)picolinamide], 10000 to 50000 nM.
Still for that read-out and setting: in the case of `COc1cc(NC(=O)c2ccccn2)ccc1/N=N/c1ccccn1` [Compound 1i, (E)-N-(3-Methoxy-4-(pyridin-2-yldiazenyl)phenyl)picolinamide] it was 10000 to 50000 nM; in that of `COc1cc(/N=N/c2ccccn2)ccc1N(C(=O)c1ccccc1)C(=O)c1ccccc1` [Compound 1k, (E)-N-Benzoyl-N-(2-methoxy-4-(pyridin-2-yldiazenyl)phenyl)benzamide], 500 to 2000 nM.
